pIC50: −log10 of the molar value. Counter-ions that a name gives are not always drawn.
What was measured:
Aurora 2 = molecular target: T1, Aurora 2 (Homo sapiens, UniProt O14965); test: Aurora 2 kinase radioactivity scintillation test; format: biochemical
T1 construct: A complete recombinant Aurora 2 enzyme, the N-terminal end of which was labeled with histidine; His tag (N); made in house; host or cells: E. coli
T1 sequence (O14965 1-403): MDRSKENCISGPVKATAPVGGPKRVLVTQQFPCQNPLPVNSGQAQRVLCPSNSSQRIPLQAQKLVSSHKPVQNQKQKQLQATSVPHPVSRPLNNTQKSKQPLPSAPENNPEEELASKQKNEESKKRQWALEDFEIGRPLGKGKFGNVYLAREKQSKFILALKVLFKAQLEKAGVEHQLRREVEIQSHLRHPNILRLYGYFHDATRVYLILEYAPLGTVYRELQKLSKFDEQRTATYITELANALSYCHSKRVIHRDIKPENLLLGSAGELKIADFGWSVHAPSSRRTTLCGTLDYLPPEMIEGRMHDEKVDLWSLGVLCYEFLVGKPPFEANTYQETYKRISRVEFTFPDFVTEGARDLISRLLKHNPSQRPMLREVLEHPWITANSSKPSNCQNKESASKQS
Procedure: The inhibitory effect of the compounds toward the kinase Aurora 2 is determined via a radioactivity scintillation test.
A complete recombinant Aurora 2 enzyme, the N-terminal end of which was labeled with histidine, was expressed in E. coli and purified to a quality close to homogeneity.
The C-terminal fragment (Q1687-H2101) of an NuMA (nuclear protein which is associated with the Mitotic Apparatus) expressed in E. coli, and the N-terminal end of which was labeled with histidine, was purified by chromatography with nickel chelate and used as substrate in the Aurora 2 kinase test.
The kinase activity of Aurora 2 is measured by scintillation on a microplate saturated with nickel chelate (New England Nuclear, SMP107 model). Each well contains 100 μl of the following solution: 0.02 μM of Aurora 2; 0.5 μM of NuMA substrate; 1 μM of ATP supplemented with 0.5 μCi of ATP-[^33P]. The solutions are incubated for 45 minutes at 37° C. The test buffer is then removed and the wells are rinsed twice with 300 μl of kinase buffer. The radioactivity is measured in each well using a Packard Model Top Count NXT machine.
The background noise is measured in duplicate in wells containing the radioactive ATP alone containing buffered kinase treated in the same manner as for the other samples.
The activity of the control is determined by measuring in duplicate the radioactivity in the complete test mixture (ATP, Aurora 2 and NuMA substrate), in the absence of test compound.
The inhibition of the activity of Aurora 2 with a compound of the invention is expressed as a percentage of inhibition of the control activity in the absence of test compound. Staurosporin is added to each plate as inhibition control.

CDK2/cyclin E = CDK2/cyclin E (Homo sapiens, UniProt P24941); test: CDK2/cyclin E Flashplate test in 96-well format; format: biochemical; details: read-out: CDK2 IC50
Procedure: 1. Protocol CDK2/cyclin E:
Purification of the CDK2/cyclin E-(His)6 Complex by IMAC (Immobilized Metal Affinity Chromatography):
Two recombinant baculoviruses bearing the human sequences coding, respectively, for CDK2 and cyclin E (the latter comprising a C-terminal hexahistidine tag) are used to coinfect insect Sf21 cells. Two to three days after the start of coinfection, the cells are harvested by centrifugation and then stored at −40° C. until the time of use. After thawing and mechanical lysis of the cells, the complex present in the lysis supernatant is purified by affinity chromatography on nickel (IMAC), and stored at −80° C.
CDK2/cyclin E Flashplate Test in 96-Well Format
A format in 96-well plates coated with streptavidin is used to test the activity of the compounds on the kinase activity of CDK2/cyclin E.
To perform this test, the biotinylated peptide substrate, a fragment of the pRb protein (biotinyl-[…]-OH) is dissolved at a concentration of 1 mM in kinase buffer (HEPES/NaOH 50 mM, NaCl 1 mM, MgCl2 5 mM, pH 7.5) in order to constitute a stock solution stored at −20° C. in the form of 110 μl aliquots. On the day of the experiment, an aliquot of this solution is thawed and diluted in kinase buffer containing 1 mM of dithiothreitol, and added to the buffer extemporaneously, in order to obtain a concentration of 14.3 μM. 70 μl of this solution are added to each well of the Flashplate in order to obtain a final substrate concentration of 10 μM during the enzymatic reaction, performed in a final volume of the reaction medium of 100 μl (cf. below).
Intermediate dilutions of inhibitors (products of the invention) at various concentrations are prepared in DMSO from stock solutions at 10 mM in separate tubes. 1000 μM, 333.3 μM, 111.1 μM, 37.03 μM, 12.35 μM, 4.11 μM and 1.37 μM dilutions are thus prepared. 1 μl of each of these solutions (or 1 μl of DMSO for the controls) is transferred into the wells of the test plate.
Into each well are then added 19 μl of a solution of a mixture of adenosine triphosphate (ATP) and of ATPy^33P in the kinase buffer at a concentration of 5.26 μM of ATP total and 52.6 μCi/ml of ^33P. The enzymatic reaction is triggered by addition of 10 μl per well of a solution of CDK2/cyclin E at 200 nM in the kinase buffer containing 1 mM of dithiothreitol (or 10 μl of kinase buffer containing 1 mM of dithiothreitol for the reaction blanks).
After addition of all the reagents, the plate is incubated at 30° C. with orbital stirring at 650 rpm.
When the incubation is complete, the plate is washed three times with 300 μl per well of PBS (phosphate-buffered saline, pH=7.4, without calcium or magnesium, reference 10010-015, Gibco BRL). The incorporation of ^33P into the peptide is quantified by scintillation counting using a Packard Topcount.NXT machine. The inhibitory activity of the products of the invention is evaluated by measuring the inhibitory concentration that allows a 50% reduction in the enzymatic activity (IC50).

CDK4/cyclin D1 = CDK4/cyclin D1 (Homo sapiens, UniProt P11802); test: CDK4/cyclin D1 Flashplate test in 96-well format; format: biochemical
Procedure: 2. CDK4/cyclin D1 Protocol:
Purification of the CDK4-HA/cyclin D1-(His)6 Complex by IMAC (Immobilized Metal Affinity Chromatography):
Two recombinant baculoviruses bearing the human sequences coding, respectively, for CDK4-HA (C-terminal fusion with the hemaglutinin tag) and for cyclin D1-(His)6 are used to coinfect insect Sf9 cells. Sixty hours after the start of the coinfection, the cells are harvested by centrifugation and then frozen at −20° C. until the time of use.
CDK4/cyclin D1 Flashplate Test in 96-Well Format
A test in 96-well “Flashplate” plates coated with streptavidin is used to evaluate the inhibition of the CDK4/cyclin D1 kinase complex by the products of the invention. To perform this test, the biotinylated peptide substrate, a fragment of the pRb protein (biotinyl-[…]-amide) is dissolved at a concentration of 2 mM in kinase buffer (HEPES/NaOH 50 mM, NaCl 1 mM, MgCl2 5 mM, pH 7.5) in order to constitute a stock solution stored at −20° C. in the form of 110 μl aliquots. On the day of the experiment, an aliquot of this solution is thawed and diluted in kinase buffer containing 1 mM of dithiothreitol, and added to the buffer extemporaneously, in order to obtain a final peptide concentration of 2.571 μM. 70 μl of this solution are added to each well of the Flashplate in order to obtain a final substrate concentration of 1.8 μM during the enzymatic reaction, performed in a final volume of the reaction medium of 100 μl (cf. below). Intermediate dilutions of inhibitors (products of the invention) at various concentrations are prepared in DMSO from stock solutions at 10 mM in separate tubes. 1000 μM, 333.3 μM, 111.1 μM, 37.03 μM, 12.35 μM, 4.11 μM and 1.37 μM dilutions are thus prepared. 1 μl of each of these solutions (or 1 μl of DMSO for the controls) is then transferred into the wells of the test plate. Into each well are then added 19 μl of a solution of a mixture of adenosine triphosphate (ATP) and of ATPy^33P in the kinase buffer at a concentration of 5.26 μM of ATP total and 78.9 μCi/ml of ^33P. The enzymatic reaction is triggered by addition of 10 μl per well of a solution of CDK4/cyclin D1 at 250 nM in the kinase buffer containing 1 mM of dithiothreitol (or 10 μl of kinase buffer containing 1 mM of dithiothreitol for the reaction blanks).
After addition of all the reagents, the test plate is incubated at 30° C. with orbital stirring at 650 rpm. After the incubation, the plate is washed three times with 300 μl per well of PBS (phosphate-buffered saline, pH=7.4, without calcium or magnesium, reference 10010-015, Gibco BRL). The incorporation of ^33P into the substrate peptide is quantified by scintillation counting using a Packard Topcount.NXT machine. The inhibitory activity of the products of the invention is evaluated by measuring the inhibitory concentration that allows a 50% reduction in the enzymatic activity (IC50).

HeLa = HeLa proliferation; format: cell-based; details: Homo sapiens, read-out: HeLa proliferation EC50 (nM) DG

CDK4/cyclin D1, sequence (P11802 whole entry): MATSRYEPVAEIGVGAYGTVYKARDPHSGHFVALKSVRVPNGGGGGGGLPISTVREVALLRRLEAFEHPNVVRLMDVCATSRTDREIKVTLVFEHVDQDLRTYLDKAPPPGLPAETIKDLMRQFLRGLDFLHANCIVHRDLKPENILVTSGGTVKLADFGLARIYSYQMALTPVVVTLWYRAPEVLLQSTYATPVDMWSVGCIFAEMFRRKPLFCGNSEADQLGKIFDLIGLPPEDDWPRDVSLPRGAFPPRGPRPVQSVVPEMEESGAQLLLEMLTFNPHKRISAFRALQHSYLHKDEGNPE
CDK4/cyclin D1, sequence (P24385 whole entry partner): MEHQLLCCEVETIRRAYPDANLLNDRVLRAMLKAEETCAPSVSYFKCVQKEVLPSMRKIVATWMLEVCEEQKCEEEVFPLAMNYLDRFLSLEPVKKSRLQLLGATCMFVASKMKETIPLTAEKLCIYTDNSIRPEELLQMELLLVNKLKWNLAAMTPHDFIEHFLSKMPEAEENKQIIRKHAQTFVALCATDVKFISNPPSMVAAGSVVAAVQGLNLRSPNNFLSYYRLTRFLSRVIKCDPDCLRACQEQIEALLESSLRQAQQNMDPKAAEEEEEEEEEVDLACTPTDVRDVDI

pIC50 (Aurora 2)	pIC50 (CDK2/cyclin E)	pIC50 (CDK4/cyclin D1)	EC50 (HeLa)	Structure (SMILES)
6.36	5.49	< 5.00	–	O=C(CCC1CCNCC1)Nc1nc2ccc(OS(=O)(=O)c3cccs3)cc2s1 [Example 33a, Thiophene-2-sulfonic acid 2-(3-piperid-4-ylpropionylamino)benzothiazol-6-yl ester; compound with trifluoroacetic acid]
5.72	5.30	< 5.00	–	CCN(CC)CCC(=O)Nc1nc2ccc(OS(=O)(=O)c3cccs3)cc2s1 [Example 33g, Thiophene-2-sulfonic acid 2-(3-diethyl-aminopropionylamino)benzothiazol-6-yl ester; compound with trifluoroacetic acid]
–	6.73	6.61	249 nM	CCCC(=O)Nc1nc2ccc(OS(=O)(=O)c3ccc(NCCNC(C)C)cc3)cc2s1 [Example 73, 4-(2-isopropylaminoethylamino)benzenesulfonic acid 2-butyrylaminobenzothiazol-6-yl ester; compound with trifluoroacetic acid]
–	6.35	6.06	195 nM	CC(C)NCCNc1ccc(S(=O)(=O)Oc2ccc3nc(NC(=O)C(C)C)sc3c2)cc1 [Example 75, 4-(2-isopropylaminoethylamino)benzenesulfonic acid 2-isobutyrylaminobenzothiazol-6-yl ester; compound with trifluoroacetic acid]
–	6.38	5.99	179 nM	CC(C)NCCNc1ccc(S(=O)(=O)Oc2ccc3nc(NC(=O)C4CCC4)sc3c2)cc1 [Example 77, 4-(2-isopropylaminoethylamino)benzenesulfonic acid (2-cyclobutanecarbonylamino)benzothiazol-6-yl ester; compound with trifluoroacetic acid]
–	7.37	7.15	140 nM	CCCC(=O)Nc1nc2ccc(OS(=O)(=O)c3ccc(NCCN(C(C)C)C(C)C)cc3)cc2s1 [Example 79, 4-(2-diisopropylaminoethylamino)benzenesulfonic acid 2-butyrylaminobenzothiazol-6-yl ester hydrochloride]
–	7.24	6.17	408 nM	CCCC(=O)Nc1nc2ccc(OS(=O)(=O)c3ccc(NCC(C)(C)O)cc3)cc2s1 [Example 80, 4-(2-hydroxy-2-methylpropylamino)benzene-sulfonic acid 2-butyrylaminobenzothiazol-6-yl ester hydrochloride]
